Holding throughout (assay): Bliss excess, mean over the matrix (fraction); higher = more synergy
Assay [1] relates to IST-MES1 (Mesothelioma). The method, boiled down: (§1)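 Cell lines grown in DMEM/F12 or RPMI with 10% FBS were plated in 1536-well plates and held 24 hours at 37°C, 5% CO2 before 72 hours of exposure to two-drug dose matrices, with DMSO typically at 0.2%. CellTiter-Glo 2.0 luminescence gave viability, which was converted to inhibition. Vehicle wells were set to 0 and blank wells to 1. Combination Emax is the second-highest inhibition in the matrix, and Bliss excess is the observed combination effect minus the expected EA + EB − EA·EB, where EA and EB are the single-agent effects.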

Assay [2] deals with OPM-2 (Plasma Cell Myeloma). The method, boiled down:
as §1

Assay [3] relates to RCM-1 (Colorectal Carcinoma). Summed up:
as §1

Assay [4] relates to RKN (Other Solid Carcinomas). The method, boiled down: as §1
In assay [5] the test system is SK-MEL-2 (Melanoma). The method, boiled down: as §1
In assay [6] the test system is NB12 (Neuroblastoma). The method, boiled down: as §1
For assay [7], the system named is L-1236 (Hodgkin's Lymphoma). Summed up:
as §1

Assay [8] has as its system PC-3_[JPC-3] (Lung Adenocarcinoma). Summed up:
as §1

The subject of assay [9] is LK-2 (Squamous Cell Lung Carcinoma). Summed up: as §1
Assay [10] concerns PSN1 (Pancreatic Carcinoma). Summed up: as §1
Assay [11] has as its system MFE-280 (Endometrial Carcinoma). Summed up: as §1
Assay [12] has as its system SK-PN-DW (Other Solid Carcinomas). Summed up:
as §1

Assay [13] deals with VAL (B-Cell Non-Hodgkin's Lymphoma). Summed up:
as §1

Assay [14] deals with OVMIU (Ovarian Carcinoma). The method, boiled down:
as §1

Assay [15] deals with SHP-77 (Small Cell Lung Carcinoma). Summed up: as §1
The test system of assay [16] is CAL-62 (Thyroid Gland Carcinoma). Summed up: as §1
Assay [17] concerns SF539 (Glioblastoma). Summed up:
as §1

In assay [18] the test system is REH (B-Lymphoblastic Leukemia). Summed up:
as §1

The test system of assay [19] is COLO-680N (Esophageal Squamous Cell Carcinoma). The method, boiled down: as §1
Assay [20] relates to TE-8 (Esophageal Squamous Cell Carcinoma). The method, boiled down: as §1

As to `C=CCn1c(=O)c2cnc(Nc3ccc(N4CCN(C)CC4)cc3)nc2n1-c1cccc(C(C)(C)O)n1` [AZD1775] + CCc1c2c(nc3ccc(O)cc13)-c1cc3c(c(=O)n1C2)COC(=O)[C@]3(O)CC [SN-38] (first compound max 1 µM, partner max 0.3 µM), the Bliss excess was 0.0008 in [1]; 0.0117 in assay [2]; -0.0402 in [3]; 0.0378 in assay [4]; 0.0426 in assay [5]; -0.0514 in [6]. In addition, the Bliss excess in assay [7] was -0.0372; in assay [8], -0.0575; in assay [9], 0.0768; in assay [10] it was -0.0499; in assay [11] it was -0.0149; in assay [12], -0.0903. Further, the Bliss excess was -0.0619 in assay [13]; -0.055 in assay [14]; -0.0315 in assay [15]; -0.0489 in assay [16]; -0.0037 in assay [17]; -0.0887 in [18]. Besides, the Bliss excess was -0.0066 in assay [19] and 0.0659 in [20].

As for `C=CCn1c(=O)c2cnc(Nc3ccc(N4CCN(C)CC4)cc3)nc2n1-c1cccc(C(C)(C)O)n1` [AZD1775] + Nc1ccn([C@@H]2O[C@H](CO)[C@@H](O)C2(F)F)c(=O)n1 [Gemcitabine] (first compound max 1 µM, partner max 0.3 µM), the Bliss excess in assay [1] is 0.0603; in assay [2] it was 0.0255; in assay [3], 0.0233; in assay [4], 0.0082; in [5], -0.0156; in assay [6], 0.0471. Further, the Bliss excess in assay [7] is -0.0076; in assay [8], -0.035; in assay [9], 0.117; in assay [10], 0.0451; in [11] it was -0.0175; in assay [12] it was -0.0347. Moreover, the Bliss excess was -0.025 in assay [14]; 0.0032 in assay [15]; -0.0162 in assay [16]; 0.0282 in assay [17]; -0.0139 in assay [18]; 0.0195 in assay [19]. The Bliss excess in [20] is -0.0247.

On to `CN(CCO)CC[C@H](CSc1ccccc1)Nc1ccc(S(=O)(=O)NC(=O)c2ccc(N3CCC([C@@H](O)c4ccccc4-c4ccc(Cl)cc4)CC3)cc2)cc1S(=O)(=O)C(F)(F)F` [AZD4320] + CC(=O)O[C@H]1C(=O)[C@@]2(C)[C@H]([C@H](OC(=O)c3ccccc3)[C@]3(O)C[C@H](OC(=O)[C@H](O)[C@@H](NC(=O)c4ccccc4)c4ccccc4)C(C)=C1C3(C)C)[C@]1(OC(C)=O)CO[C@@H]1C[C@@H]2O [Paclitaxel] (first compound max 1 µM, 7x7, partner max 3 µM), for which the Bliss excess is 0.0787 in assay [1]; 0.023 in [2]; 0.0793 in [3]; 0.0901 in assay [4]; 0.148 in assay [5]; 0.0333 in assay [6]. The Bliss excess was 0.0186 in assay [7]; 0.0232 in assay [8]; 0.0318 in assay [9]; 0.0166 in [10]; 0.171 in assay [11]; 0.0738 in assay [12]. In addition, the Bliss excess in assay [13] is 0.0018; in assay [14], 0.0232; in assay [15] it was -0.0369; in [16], 0.0036; in assay [17], 0.0404; in assay [18], 0.0132. Further, the Bliss excess in [19] was 0.092; in assay [20], 0.0954.

Turning to `CN(CCO)CC[C@H](CSc1ccccc1)Nc1ccc(S(=O)(=O)NC(=O)c2ccc(N3CCC([C@@H](O)c4ccccc4-c4ccc(Cl)cc4)CC3)cc2)cc1S(=O)(=O)C(F)(F)F` [AZD4320] + CS(=O)(=O)CCNCc1ccc(-c2ccc3ncnc(Nc4ccc(OCc5cccc(F)c5)c(Cl)c4)c3c2)o1 [Lapatinib] (first compound max 1 µM, 7x7, partner max 10 µM), the Bliss excess was 0.0367 in assay [1]; 0.0503 in [2]; 0.0202 in [3]; -0.0121 in assay [4]; -0.0501 in assay [5]; 0.0902 in assay [6]. Also, the Bliss excess in [7] is -0.0252; in assay [8] it was -0.0108; in assay [9] it was 0.0876; in assay [10], -0.0405; in [11], 0.0411; in [12], -0.0829. Besides, the Bliss excess in assay [13] was 0.0503; in assay [14], 0.106; in assay [15], 0.159; in assay [16], 0.0444; in [17], -0.0026; in [18] it was 0.0721. Besides, the results for the Bliss excess in [19] and in [20] were -0.0042 and 0.0281, respectively.

As to `CN(CCO)CC[C@H](CSc1ccccc1)Nc1ccc(S(=O)(=O)NC(=O)c2ccc(N3CCC([C@@H](O)c4ccccc4-c4ccc(Cl)cc4)CC3)cc2)cc1S(=O)(=O)C(F)(F)F` [AZD4320] + Nc1ccn([C@@H]2O[C@H](CO)[C@@H](O)C2(F)F)c(=O)n1 [Gemcitabine] (first compound max 1 µM, 7x7, partner max 0.3 µM), the Bliss excess was 0.0448 in assay [1]; 0.0089 in assay [2]; -0.0271 in assay [3]; -0.0164 in assay [4]; -0.0453 in assay [5]; 0.0268 in assay [6]. Also, the Bliss excess in assay [7] was -0.0377; in assay [8], 0.016; in [9] it was 0.083; in assay [10], -0.0027; in [11], -0.0216; in [12], -0.0422. Moreover, the Bliss excess in assay [13] was -0.0044; in [14] it was 0.0028; in assay [15] it was 0.0333; in [16] it was 0.0487; in [17], -0.0356; in [18], 0.0126. The Bliss excess is -0.08 in assay [19] and 0.0054 in assay [20].

As for `Cc1c2c(nn1C)CSCc1cc(n(C)n1)CSc1cc(c3ccccc3c1)OCCCc1c(C(=O)O)n(C)c3c-2c(Cl)ccc13` [AZD5991] + CC(=O)O[C@H]1C(=O)[C@@]2(C)[C@H]([C@H](OC(=O)c3ccccc3)[C@]3(O)C[C@H](OC(=O)[C@H](O)[C@@H](NC(=O)c4ccccc4)c4ccccc4)C(C)=C1C3(C)C)[C@]1(OC(C)=O)CO[C@@H]1C[C@@H]2O [Paclitaxel] (first compound max 1 µM, 7x7, partner max 3 µM), the Bliss excess in assay [1] is -0.007; in assay [2], 0.0072; in assay [3], 0.0336; in assay [4], -0.0775; in [5], -0.0341; in assay [6], -0.0424. The Bliss excess in assay [7] was -0.0631; in [8], -0.0256; in assay [9], 0.0165; in [10] it was 0.0098; in assay [11] it was -0.0363; in assay [12], -0.0012. In addition, the Bliss excess is -0.0913 in assay [13]; 0.0231 in [14]; -0.0043 in assay [15]; -0.0941 in assay [16]; 0.0053 in assay [17]; -0.0011 in assay [18]. Further, the Bliss excess in assay [19] is 0.0107; in assay [20], -0.0041.

Turning to `Cc1c2c(nn1C)CSCc1cc(n(C)n1)CSc1cc(c3ccccc3c1)OCCCc1c(C(=O)O)n(C)c3c-2c(Cl)ccc13` [AZD5991] + CS(=O)(=O)CCNCc1ccc(-c2ccc3ncnc(Nc4ccc(OCc5cccc(F)c5)c(Cl)c4)c3c2)o1 [Lapatinib] (first compound max 1 µM, 7x7, partner max 10 µM), the Bliss excess in assay [1] was 0.0139; in assay [2], -0.0145; in [3], 0.0137; in assay [4], -0.0174; in [5] it was -0.0147; in assay [6], -0.0394. Also, the Bliss excess in [7] was 0.102; in assay [8], 0.0072; in assay [9] it was -0.019; in assay [10] it was -0.045; in assay [11], -0.012; in [12], 0.0081. Moreover, the Bliss excess was -0.137 in assay [13]; 0.0371 in [14]; 0.0045 in [15]; -0.0118 in [16]; 0.0226 in [17]; -0.038 in [18]. Also, the Bliss excess in [19] is -0.011; in assay [20], 0.0014.
